Experimental findings from PubChem BioAssay (NCI) are described below.

Some test systems named below: KM12 colon; SF-539 CNS; UACC-257 melanoma; SN12C renal; SK-OV-3 ovarian; MCF7 breast; HS 578T breast; M14 melanoma; RPMI-8226 leukemia; COLO 205 colon.
Experiment in all cases: NCI anticancer screen, dose series, 48 h

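1) Cells in 96-well plates. 2) Compound, 48 h, 5 concentrations. 3) Linear interpolation between surrounding doses. 4) Unreached endpoint = highest concentration. GI50: concentration for 50% inhibition of growth. TGI denotes the concentration required for complete inhibition of growth.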

`OCCCN=NNc1ccc(-c2nc3ccccc3[nH]2)cc1`: the GI50 was 5.12 µM with KM12 colon; 5.97 µM with SF-539 CNS; 10.4 µM in the test on UACC-257 melanoma; 14.3 µM in the test on SN12C renal; 24.2 µM with SK-OV-3 ovarian; 0.0891 µM in the test on MCF7 breast. Moreover, the GI50 is 4.54 µM in the test on HS 578T breast, 39.9 µM in the test with M14 melanoma, 34.2 µM in the test on RPMI-8226 leukemia and 12.3 µM in the test with COLO 205 colon. For the same compound, the TGI with KM12 colon is 24.9 µM; in the test on SF-539 CNS, 28.4 µM; with UACC-257 melanoma it was more than 100 µM; with SN12C renal it was 46.6 µM; in the test with SK-OV-3 ovarian, 73 µM; in the test on MCF7 breast it was 2.4 µM. Moreover, the TGI is 21.9 µM in the test on HS 578T breast, 69.4 µM with M14 melanoma, more than 100 µM in the test with RPMI-8226 leukemia and 52.9 µM with COLO 205 colon.
As for `CC(=O)Nc1ccc(Sc2ccc([N+](=O)[O-])o2)cc1`, the GI50 in the test with KM12 colon was 2.84 µM; in the test with SF-539 CNS it was 3.13 µM; in the test with UACC-257 melanoma, 1.61 µM; in the test on SN12C renal, 2.96 µM; with SK-OV-3 ovarian, 8.37 µM; in the test with MCF7 breast, 1.88 µM. For the same compound, the GI50 in the test on HS 578T breast is 3.87 µM; with M14 melanoma it was 2.08 µM; in the test on RPMI-8226 leukemia, 2.13 µM; with COLO 205 colon, 0.651 µM. The TGI in the test on KM12 colon is 9.08 µM; in the test on SF-539 CNS, 11 µM; in the test on UACC-257 melanoma it was 3.52 µM; in the test on SN12C renal, 10.7 µM; with SK-OV-3 ovarian it was 20.6 µM; in the test on MCF7 breast it was 6.92 µM. The TGI in the test with HS 578T breast is 24.9 µM; in the test with M14 melanoma, 4.09 µM; in the test on RPMI-8226 leukemia it was 8.65 µM; in the test with COLO 205 colon it was 1.82 µM.
For the compound `O=C1C(Br)=CC2(C=C1Br)CCN=c1c2c(O)c2nc3ccccc3c3ccnc1c23`, the GI50 with KM12 colon is 2.42 µM; with SF-539 CNS it was 1.55 µM; in the test on SN12C renal, 1.54 µM; in the test on SK-OV-3 ovarian, 5.03 µM; in the test on MCF7 breast, 0.765 µM; in the test on HS 578T breast, 4 µM. Moreover, the GI50 was 1.73 µM in the test with M14 melanoma, 0.591 µM in the test with RPMI-8226 leukemia and 1.05 µM with COLO 205 colon. The TGI in the test on KM12 colon was found to be 8.67 µM; in the test on SF-539 CNS it was 6.11 µM; in the test on SN12C renal it was 5.92 µM; in the test with SK-OV-3 ovarian, 11 µM; in the test with MCF7 breast, 2.69 µM; in the test on HS 578T breast, 17.1 µM. The TGI with M14 melanoma worked out at 8.73 µM; in the test with RPMI-8226 leukemia it was 1.57 µM; in the test with COLO 205 colon it was 3.03 µM.
Turning to `COc1cccc(C2C(C#N)=C(N)Oc3cc(N)ccc32)c1` (stereo not drawn), the GI50 with KM12 colon is 0.442 µM; in the test with SF-539 CNS, 0.343 µM; with UACC-257 melanoma, 0.319 µM; in the test with SN12C renal, 0.689 µM; in the test with SK-OV-3 ovarian it was 0.4 µM; with MCF7 breast, 0.314 µM. The GI50 is 0.314 µM in the test on HS 578T breast, 0.341 µM in the test on M14 melanoma, 0.412 µM with RPMI-8226 leukemia and 0.385 µM in the test on COLO 205 colon. Also, the TGI was 45.9 µM in the test with KM12 colon; 1.37 µM with SF-539 CNS; more than 100 µM with UACC-257 melanoma; more than 100 µM in the test with SN12C renal; 3.5 µM with SK-OV-3 ovarian; more than 100 µM with MCF7 breast. Further, the TGI was more than 100 µM in the test with HS 578T breast, more than 100 µM with M14 melanoma, more than 69 µM with RPMI-8226 leukemia and 2.09 µM with COLO 205 colon.
Turning to `CC(C)CCOc1ccc(-c2n[nH]c(C(F)(F)F)c2-c2cncc(C#N)c2)c(O)c1`, the GI50 in the test on KM12 colon is 3.33 µM; with SF-539 CNS, 2.8 µM; in the test on UACC-257 melanoma, 1.69 µM; with SN12C renal, 2.34 µM; in the test with SK-OV-3 ovarian, 2.2 µM; with MCF7 breast, 2.23 µM. Besides, the GI50 with HS 578T breast was 2.91 µM; with M14 melanoma, 2.49 µM; with RPMI-8226 leukemia, 0.697 µM; in the test on COLO 205 colon, 1.68 µM. Also, the TGI in the test on KM12 colon is more than 100 µM; with SF-539 CNS, 16.7 µM; with UACC-257 melanoma it was 5.54 µM; in the test on SN12C renal, 15.9 µM; in the test with SK-OV-3 ovarian, 6.6 µM; in the test with MCF7 breast it was more than 100 µM. The TGI turned out to be 21.4 µM with HS 578T breast, 9.13 µM with M14 melanoma, 4.65 µM in the test on RPMI-8226 leukemia and 3.14 µM in the test with COLO 205 colon.
As to `CCN(CC)CCCNc1cccc2c(SCc3ccccc3)ccnc12`, the GI50 in the test with KM12 colon is 1.75 µM; with SF-539 CNS, 1.63 µM; in the test on UACC-257 melanoma, 2.09 µM; in the test with SN12C renal it was 1.81 µM; with SK-OV-3 ovarian, 2.02 µM; in the test on MCF7 breast, 1.62 µM. Also, the GI50 in the test on HS 578T breast was 2.2 µM; in the test on M14 melanoma, 1.96 µM; in the test with RPMI-8226 leukemia it was 1.24 µM; in the test on COLO 205 colon, 1.84 µM. Besides, the TGI in the test on KM12 colon came out at 3.38 µM; in the test on SF-539 CNS it was 3.13 µM; in the test with UACC-257 melanoma, 3.85 µM; with SN12C renal it was 12.6 µM; in the test on SK-OV-3 ovarian, 4.51 µM; with MCF7 breast, 3.16 µM. Besides, the TGI with HS 578T breast is 6.31 µM; in the test with M14 melanoma, 3.6 µM; with RPMI-8226 leukemia, 3.37 µM; in the test on COLO 205 colon, 3.44 µM.
Regarding `O=C(O)C1C(C(=O)Nc2ccc3c(c2)Cc2ccccc2-3)C2(Cl)C(Cl)=C(Cl)C1(Cl)C2(Cl)Cl` (stereo not drawn), the TGI in the test with KM12 colon is 39 µM; in the test with SF-539 CNS, 28.9 µM; in the test on UACC-257 melanoma it was 48.2 µM; with SN12C renal, more than 100 µM; with SK-OV-3 ovarian, more than 100 µM; in the test with MCF7 breast it was 62.2 µM. Further, the TGI with HS 578T breast was 49.2 µM; with M14 melanoma it was 42.7 µM; in the test with RPMI-8226 leukemia, 32 µM; with COLO 205 colon, 31.4 µM.
For `ClC1=C(Cl)C(Cl)=C(Cl)C1=C/C=C/c1ccccc1`, the GI50 with KM12 colon is 0.272 µM; in the test with SF-539 CNS, 0.206 µM; with UACC-257 melanoma it was 0.184 µM; in the test with SN12C renal, 0.407 µM; with SK-OV-3 ovarian, 2.44 µM; with MCF7 breast, 0.139 µM. Also, the GI50 is 0.208 µM in the test on HS 578T breast, 0.279 µM in the test with M14 melanoma, less than 0.0374 µM in the test on RPMI-8226 leukemia and 0.226 µM in the test with COLO 205 colon. In addition, the TGI with KM12 colon is 0.684 µM; in the test on SF-539 CNS, 0.699 µM; in the test on UACC-257 melanoma, 0.41 µM; in the test with SN12C renal, 2.15 µM; in the test with SK-OV-3 ovarian, more than 27.5 µM; with MCF7 breast, 0.664 µM. Further, the TGI in the test on HS 578T breast came to 0.685 µM; in the test with M14 melanoma, 0.882 µM; in the test with RPMI-8226 leukemia it was 0.275 µM; in the test with COLO 205 colon it was 0.686 µM.
Take `CC(=O)c1ccc(NC(=O)CSc2nnc(-c3cc(-c4ccc(C)cc4)nc4ccccc34)o2)cc1`: the GI50 in the test with SF-539 CNS is 1.8 µM; in the test on UACC-257 melanoma, more than 100 µM; in the test with SN12C renal it was 2.15 µM; in the test on SK-OV-3 ovarian it was 2.64 µM; with MCF7 breast it was 2.69 µM; with HS 578T breast, 4.06 µM. In addition, the values for the GI50 in the test on M14 melanoma, with RPMI-8226 leukemia and in the test with COLO 205 colon were 5.65 µM, 3.37 µM and 6.54 µM, respectively. Also, the TGI was 3.92 µM in the test on SF-539 CNS; more than 100 µM with UACC-257 melanoma; 5.45 µM in the test with SN12C renal; 8.22 µM in the test on SK-OV-3 ovarian; more than 100 µM with MCF7 breast; 39.4 µM in the test on HS 578T breast. Moreover, the TGI in the test with M14 melanoma, with RPMI-8226 leukemia and in the test on COLO 205 colon was more than 100 µM each time.
Take `COC(=O)c1ccc2c(c1)nc(-c1cc3ccccc3[nH]c1=O)n2-c1cc(C(C)(C)C)[nH]n1`: the GI50 in the test with SF-539 CNS is more than 20.3 µM; in the test on SN12C renal, more than 23.7 µM; in the test on SK-OV-3 ovarian it was more than 53.4 µM; in the test on MCF7 breast, more than 100 µM; in the test with HS 578T breast it was 0.574 µM; in the test with RPMI-8226 leukemia, 0.443 µM. In addition, the TGI with SF-539 CNS is more than 100 µM; in the test on SN12C renal it was more than 100 µM; with SK-OV-3 ovarian it was more than 100 µM; with MCF7 breast, more than 100 µM; with HS 578T breast, more than 58.4 µM.
As to `COc1cc(C(=O)/C=C/c2cc(C(=O)c3cc(OC)c(OC)c(OC)c3)ccc2OC)ccc1N`, the GI50 in the test on KM12 colon is 0.552 µM; with SF-539 CNS, 1.53 µM; in the test on UACC-257 melanoma it was 1.32 µM; in the test on SN12C renal, 1.62 µM; in the test with SK-OV-3 ovarian, 3.16 µM; in the test on MCF7 breast, 0.322 µM. Moreover, the GI50 with HS 578T breast is 1.39 µM; in the test with M14 melanoma, 0.752 µM; in the test with RPMI-8226 leukemia, 0.419 µM. Moreover, the TGI in the test with KM12 colon was 5.37 µM; in the test on SF-539 CNS, 3.98 µM; in the test on UACC-257 melanoma, 3.14 µM; in the test with SN12C renal, 4.92 µM; in the test with SK-OV-3 ovarian, 16.1 µM; in the test with MCF7 breast it was 2.28 µM. For the same compound, the TGI in the test with HS 578T breast was more than 100 µM; with M14 melanoma it was 3.06 µM; in the test with RPMI-8226 leukemia it was 14.1 µM.
On to `Cc1cccc(Oc2nccc(-c3c(-c4ccc(F)cc4)ncn3C3CCNCC3)n2)c1C`, for which the GI50 is 11.2 µM with KM12 colon; 4.84 µM with SF-539 CNS; 9.16 µM in the test with SN12C renal; 5.72 µM with SK-OV-3 ovarian; 6.68 µM with MCF7 breast; 8.9 µM in the test on HS 578T breast. In addition, the GI50 in the test with M14 melanoma was 4.8 µM; in the test on RPMI-8226 leukemia, 7.52 µM; in the test on COLO 205 colon, 4.21 µM. Besides, the TGI in the test on KM12 colon is more than 23.8 µM; in the test with SF-539 CNS, 10.4 µM; in the test on SN12C renal, more than 25 µM; in the test with SK-OV-3 ovarian it was 12.5 µM; in the test with MCF7 breast it was more than 14.4 µM; with HS 578T breast it was more than 16.2 µM. Moreover, the TGI is 9.01 µM in the test with M14 melanoma, more than 18.6 µM with RPMI-8226 leukemia and 8.03 µM in the test with COLO 205 colon.
